Assay results: patent EP0486595B1, “Use of a coleus extract for skin pigmentation” (LVMH RECHERCHE, priority 1989, dated 1991)

Key:
[1] = system: mélanocytes murins; assay: Melanin formation (melanogenesis stimulation) in cultured melanocytes, optical density at 475 nm; format: cell-based; details: for Mélanine >g pour 10⁶ mélanocytes / A: concentration 10 >g/ml; for A: relative to β-MSH 2.10⁻⁸ M
Excerpt: (§1) Des mélanocytes murins sont cultivés sur un milieu approprié de manière classique.
Au jour J = 0, le produit à tester est introduit dans le milieu de culture. […]
(§2) On procède à la lecture de la densité optique sur un spectrophotomètre à 475 nm, ce qui permet d'évaluer la quantité de mélanine formée par comparaison à la densité optique d'une solution de mélanine de concentration connue.
(§3) On procède également au comptage des cellules, et on calcule le taux de mélanine formée par cellule, par rapport à une culture témoin, sans addition de produit à tester.
(§4) L'extrait Coleus 5B, selon l'exemple 5b est testé en comparaison avec de la forskoline seule, utilisée à concentration équivalente, et avec un témoin positif consistant en 10⁻⁸ mole de β-MSH. Ainsi, on introduit au jour J=0 dans le milieu de culture de la forskoline à la concentration de 0,1 >g/ml.
(§5) Dans une autre culture, on introduit l'extrait de Coleus à une concentration déterminée de façon que le taux en forskoline soit également d'environ 0,1 >g/ml.
(§6) L'activité A de la stimulation de la mélanogénèse par les produits selon l'invention est calculée par la formule suivante : [formula] dans laquelle les grandeurs q représentent les quantités de mélanine formée qp = culture recevant le produit à tester q₊ = culture recevant la βMSH qo = culture témoin ne recevant aucun produit.
(§7) Par ailleurs, on a testé dans des conditions analogues les extraits de Coleus 5A et 5C respectivement obtenus par extraction par un mélange éthanol-eau 80:20 et par le dichlorométhane. On notera toutefois qu'il a été pris comme témoin positif une culture recevant de la β-MSH à la concentration de 2.10⁻⁸M.
(§8) On opère comme à l'exemple 6. La combinaison IBMX plus extrait de Coleus est testée en comparaison avec l'IBMX et l'extrait de Coleus seul, de même qu'avec la β-MSH à la concentration de 2.10⁻⁸ M prise comme témoin positif.

[2] = system: mélanocytes murins; assay: as above; format: cell-based; details: for Activité A en % / A: 100 by definition; for Mélanine >g pour 10⁶ mélanocytes / A: β-MSH 2.10⁻⁸ M
Excerpt: as §1
Au jour J = 0, le produit à tester est introduit dans le milieu de culture.
Au jour J = 5, on prélève les cellules que l'on isole par centrifugation et on récupère le culot cellulaire que l'on dissout dans de la soude 0,5 N.
as §2, §3, §4, §5, §6, §7, §8

`C=C[C@@]1(C)CC(=O)[C@]2(O)[C@@]3(C)[C@@H](O)CCC(C)(C)[C@@H]3[C@H](O)[C@H](OC(C)=O)[C@@]2(C)O1` [Forskoline, forskoline] was tested, and the “Mélanine formée en >g pour 10⁶ cellules” value ([1]; J = 5, forskoline 0,1 >g/ml, extract dosed to a forskoline level of about 0,1 >g/ml) was 92 ± 3 >g pour 10⁶ cellules and the “Activité A en %” value ([1]; J = 5, forskoline level about 0,1 >g/ml, relative to β-MSH 10⁻⁸ mole = 100) was 151%.

With `CC(C)Cn1c(=O)n(C)c(=O)c2[nH]cnc21` [IBMX, 3-isobutyl-1-méthylxanthine] the “Mélanine >g pour 10⁶ mélanocytes” value ([1]; J = 4) was 64 +/-0 >g pour 10⁶ mélanocytes, the A ([1]; J = 4) was “+ 39” and the “Mélanine >g pour 10⁶ mélanocytes” value ([1]; J = 5) was 103 +/-2 >g pour 10⁶ mélanocytes. For the same compound, the A ([1]; J = 5) was “+ 35”.

For β-MSH, the “Activité A en %” value ([2]; 2.10⁻⁸M) was 100%, the “Mélanine formée en >g pour 10⁶ cellules” value ([2]; 2.10⁻⁸M, Table II positive control) was 179 ± 4 >g pour 10⁶ cellules and the “Mélanine >g pour 10⁶ mélanocytes” value ([2]; J = 4) was 119 +/-7 >g pour 10⁶ mélanocytes. The A ([2]; J = 4) was “+ 100”, the “Activité A en %” value ([2]; J = 5, 10⁻⁸ mole de β-MSH) was 100% and the “Mélanine formée en >g pour 10⁶ cellules” value ([2]; J = 5, positive control 10⁻⁸ mole de β-MSH) was 70 >g pour 10⁶ cellules. For the same compound, the “Mélanine >g pour 10⁶ mélanocytes” value ([2]; J = 5) was 200 +/-2 >g pour 10⁶ mélanocytes and the A ([2]; J = 5) was “+ 100”.
